Experimental data: patent US20080194642A1, “HIGH DOSE, LONG-ACTING ECTOPARASITICIDE FOR EXTENDED CONTROL” (Wyeth, priority 2007, published 2008)

Legend:
[1] = test system: cat flea, Ctenocephalides felis; experiment: Duration of efficacy of high doses of ectoparasiticides against the cat flea in cats (Example 5); type: in vivo
Excerpt: In this evaluation, 32 domestic shorthair cats of mixed sex, aged at least 6 months, were used to test the high doses of ectoparasiticides disclosed herein. Cats were free of ectoparasiticide treatment for 60 days prior to administration of the experimental treatments. No drugs, baths, shampoos, or pesticides were given to the cats during the preconditioning phase or during the course of the study other than what is described in the protocol. At least 36 cats were preconditioned for 7 days. On day −7, each cat was infested with 100 unfed cat fleas, Ctenocephalides felis. On Day −5, each cat was thoroughly examined and combed to remove and count fleas. 32 cats were ranked in descending order by flea count. From the ranking, the cats were divided into four blocks of eight cats each. The eight cats within each of the four blocks were randomly allocated to treatment groups (A-H).
Applications for groups B-H were administered using a disposable syringe. The dose was applied as a single spot on the dorsal neck at the base of the skull. Group A was left untreated. […] On Days 1 through 14 following administration of the treatments, cats were observed daily for reactions and formulation acceptability. Thereafter, cats were observed once daily for the remainder of the study. Cats were infested with 100 adult cat fleas on Day 14 then examined for fleas on Day 16. The cats were re-infested and examined again on Days 28 and 30, on Days 56 and 58 then bi-weekly until efficacy waned. At each infestation, 100 unfed adult fleas were applied along the dorsal rump of each cat. The negative control group (Group A) was infested before the test compound groups. Fleas were recovered by examining and combing the groups in the same order. Combs were washed and rinsed with alcohol between cats, and latex gloves were changed between treatment groups.
(§1) Flea counts were transformed by log (count +1), and geometric means were used to calculate percent efficacy for the treatments using (Yc−Yt)/Yc*100, where Yc and Yt equal mean counts for control and treated groups, respectively.

[2] = test system: cat flea, Ctenocephalides felis; experiment: Duration of control in dogs treated with ectoparasiticides at up to 3x the conventional dose against the cat flea (Example 6); type: in vivo
Excerpt: In this evaluation, 32 mixed breed male or female dogs, aged 1 to 10 years, were used. Dogs were not treated with an ectoparasiticide for 60 days prior to the study. No drugs, baths, shampoos or pesticides were given to the dogs during the preconditioning phase or during the course of the study other than what is described in the protocol. At least 36 dogs were preconditioned for 14 days. All dogs were bathed with noninsecticidal shampoo (Day −12 to −8). On Day −7, each dog was infested with 100 unfed cat fleas, Ctenocephalides felis. On Day −5, each dog was thoroughly examined and then combed to remove and count fleas. Dogs were selected for inclusion in the study on the basis of flea retention and/or behavior. The 32 dogs with the highest flea counts were selected for the study, except for exclusion of dogs deemed not easily handled. The dogs were blocked by flea number retained, and randomly allocated within blocks into 8 groups of 4 dogs.
Applications for Groups B-H were administered using disposable syringes. Each dog received a spot of the appropriate formulation to the skin (by syringe without a needle) at the dorsal midline between the shoulder blades. Group A was left untreated. […] Observations for post-treatment adverse reactions, skin irritation and behavior of test formulations were made at four hours following administration of treatments. Thereafter, dogs were observed once daily on Days 1-14 for formulation acceptability, adverse reactions, or signs of skin irritation following treatment. Daily observations of the physical condition of the animals were made throughout the trial.
Dogs were infested with 100 adult cat fleas, Ctenocephalides felis, on Day 14 and then examined for live fleas on Day 16. The dogs were re-infested/examined on Days 28/30, 56/58, 70/72, 84/86 and then infested and examined again at 2 week intervals until efficacy waned. At each infestation, 100 unfed adult fleas were applied along the lateral midline of each dog. The negative control group (Group A) was infested before the test compound groups. Fleas were recovered by examining and combing the groups in the same order. Combs were washed and rinsed with alcohol between dogs. Plastic gloves and aprons were changed between treatment groups.
as §1

[3] = 7.5 mg fipronil/kg spot-on, Day 16
[4] = 7.5 mg fipronil/kg spot-on, Day 30
[5] = 7.5 mg fipronil/kg spot-on, Day 58
[6] = 7.5 mg fipronil/kg spot-on, Day 72
[7] = 7.5 mg fipronil/kg spot-on, Day 86
[8] = 7.5 mg fipronil/kg spot-on, Day 100
[9] = 22.5 mg fipronil/kg spot-on, Day 16
[10] = 22.5 mg fipronil/kg spot-on, Day 30
[11] = 22.5 mg fipronil/kg spot-on, Day 58
[12] = 22.5 mg fipronil/kg spot-on, Day 72
[13] = 22.5 mg fipronil/kg spot-on, Day 86
[14] = 22.5 mg fipronil/kg spot-on, Day 100
[15] = 7 mg fipronil/kg (1×) spot-on, Day 16
[16] = 7 mg fipronil/kg (1×) spot-on, Day 30
[17] = 7 mg fipronil/kg (1×) spot-on, Day 58
[18] = 7 mg fipronil/kg (1×) spot-on, Day 72
[19] = 7 mg fipronil/kg (1×) spot-on, Day 86
[20] = 7 mg fipronil/kg (1×) spot-on, Day 100
[21] = 7 mg fipronil/kg (1×) spot-on, Day 114
[22] = 21 mg fipronil/kg (3×) spot-on, Day 16
[23] = 21 mg fipronil/kg (3×) spot-on, Day 30
[24] = 21 mg fipronil/kg (3×) spot-on, Day 58
[25] = 21 mg fipronil/kg (3×) spot-on, Day 72
[26] = 21 mg fipronil/kg (3×) spot-on, Day 86
[27] = 21 mg fipronil/kg (3×) spot-on, Day 100
[28] = 10 mg imidacloprid/kg spot-on, Day 16
[29] = 10 mg imidacloprid/kg spot-on, Day 30
[30] = 10 mg imidacloprid/kg spot-on, Day 58
[31] = 10 mg imidacloprid/kg spot-on, Day 72
[32] = 10 mg imidacloprid/kg spot-on, Day 86
[33] = 10 mg imidacloprid/kg spot-on, Day 100
[34] = 30 mg imidacloprid/kg spot-on, Day 16
[35] = 30 mg imidacloprid/kg spot-on, Day 30
[36] = 30 mg imidacloprid/kg spot-on, Day 58
[37] = 30 mg imidacloprid/kg spot-on, Day 72
[38] = 30 mg imidacloprid/kg spot-on, Day 86
[39] = 30 mg imidacloprid/kg spot-on, Day 100
[40] = 10 mg imidacloprid/kg (1×) spot-on, Day 16
[41] = 10 mg imidacloprid/kg (1×) spot-on, Day 30
[42] = 10 mg imidacloprid/kg (1×) spot-on, Day 58
[43] = 10 mg imidacloprid/kg (1×) spot-on, Day 72
[44] = 10 mg imidacloprid/kg (1×) spot-on, Day 86
[45] = 30 mg imidacloprid/kg (3×) spot-on, Day 16
[46] = 30 mg imidacloprid/kg (3×) spot-on, Day 30
[47] = 30 mg imidacloprid/kg (3×) spot-on, Day 58
[48] = 30 mg imidacloprid/kg (3×) spot-on, Day 72
[49] = 30 mg imidacloprid/kg (3×) spot-on, Day 86

For `N#Cc1nn(-c2c(Cl)cc(C(F)(F)F)cc2Cl)c(N)c1[S+]([O-])C(F)(F)F` (stereo not drawn) [fipronil], the “% Efficacy” value [1, 3] was 97.7%, the “Flea comb count, G.M.” value [1, 3] was 1.2 and the “% Efficacy” value [1, 4] was 96.4%. The “Flea comb count, G.M.” value [1, 4] was 2.3, the “% Efficacy” value [1, 5] was 78.8% and the “Flea comb count, G.M.” value [1, 5] was 11.5. For the same molecule, the “% Efficacy” value [1, 6] was 81.1%, the “Flea comb count, G.M.” value [1, 6] was 12.5 and the “% Efficacy” value [1, 7] was 66.9%. For the same molecule, the “Flea comb count, G.M.” value [1, 7] was 19.2, the “% Efficacy” value [1, 8] was 14.3% and the “Flea comb count, G.M.” value [1, 8] was 50.6. The “% Efficacy” value [1, 9] was 97.8%, the “Flea comb count, G.M.” value [1, 9] was 1.2 and the “% Efficacy” value [1, 10] was 100.0%. The “Flea comb count, G.M.” value [1, 10] was 0.0, the “% Efficacy” value [1, 11] was 93.8% and the “Flea comb count, G.M.” value [1, 11] was 3.4. For the same molecule, the “% Efficacy” value [1, 12] was 94.7%, the “Flea comb count, G.M.” value [1, 12] was 3.5 and the “% Efficacy” value [1, 13] was 64.9%. For the same molecule, the “Flea comb count, G.M.” value [1, 13] was 20.3, the “% Efficacy” value [1, 14] was 31.5% and the “Flea comb count, G.M.” value [1, 14] was 40.4. The “% Efficacy” value [2, 15] was 99.8%, the “Flea Counts/Dog/Day (Geometric Means)” value [2, 15] was 0.2 and the “% Efficacy” value [2, 16] was 99.8%. For the same molecule, the “Flea Counts/Dog/Day (Geometric Means)” value [2, 16] was 0.2, the “% Efficacy” value [2, 17] was 100.0% and the “Flea Counts/Dog/Day (Geometric Means)” value [2, 17] was 0.0. For the same molecule, the “% Efficacy” value [2, 18] was 96.9%, the “Flea Counts/Dog/Day (Geometric Means)” value [2, 18] was 2.4 and the “% Efficacy” value [2, 19] was 97.4%. The “Flea Counts/Dog/Day (Geometric Means)” value [2, 19] was 2.3, the “% Efficacy” value [2, 20] was 94.1% and the “Flea Counts/Dog/Day (Geometric Means)” value [2, 20] was 4.3. The “% Efficacy” value [2, 21] was 84.7%, the “Flea Counts/Dog/Day (Geometric Means)” value [2, 21] was 10.2 and the “% Efficacy” value [2, 22] was 100.0%. The “Flea Counts/Dog/Day (Geometric Means)” value [2, 22] was 0.0, the “% Efficacy” value [2, 23] was 100.0% and the “Flea Counts/Dog/Day (Geometric Means)” value [2, 23] was 0.0. For the same molecule, the “% Efficacy” value [2, 24] was 90.7%, the “Flea Counts/Dog/Day (Geometric Means)” value [2, 24] was 7.5 and the “% Efficacy” value [2, 25] was 85.4%. The “Flea Counts/Dog/Day (Geometric Means)” value [2, 25] was 11.4, the “% Efficacy” value [2, 26] was 48.0% and the “Flea Counts/Dog/Day (Geometric Means)” value [2, 26] was 45.3. For the same molecule, the “% Efficacy” value [2, 27] was 39.5% and the “Flea Counts/Dog/Day (Geometric Means)” value [2, 27] was 44.1.
`O=[N+]([O-])/N=C1\NCCN1Cc1ccc(Cl)nc1` [imidacloprid] was tested, and the “% Efficacy” value [1, 28] was 100.0%, the “Flea comb count, G.M.” value [1, 28] was 0.0 and the “% Efficacy” value [1, 29] was 98.5%. For the same molecule, the “Flea comb count, G.M.” value [1, 29] was 1.0, the “% Efficacy” value [1, 30] was 81.4% and the “Flea comb count, G.M.” value [1, 30] was 10.0. For the same molecule, the “% Efficacy” value [1, 31] was 84.8%, the “Flea comb count, G.M.” value [1, 31] was 10.0 and the “% Efficacy” value [1, 32] was 71.1%. The “Flea comb count, G.M.” value [1, 32] was 16.7, the “% Efficacy” value [1, 33] was 43.5% and the “Flea comb count, G.M.” value [1, 33] was 33.3. The “% Efficacy” value [1, 34] was 100.0%, the “Flea comb count, G.M.” value [1, 34] was 0.0 and the “% Efficacy” value [1, 35] was 99.5%. The “Flea comb count, G.M.” value [1, 35] was 0.3, the “% Efficacy” value [1, 36] was 100.0% and the “Flea comb count, G.M.” value [1, 36] was 0.0. The “% Efficacy” value [1, 37] was 99.0%, the “Flea comb count, G.M.” value [1, 37] was 0.7 and the “% Efficacy” value [1, 38] was 96.0%. The “Flea comb count, G.M.” value [1, 38] was 2.3, the “% Efficacy” value [1, 39] was 91.4% and the “Flea comb count, G.M.” value [1, 39] was 5.1. For the same molecule, the “% Efficacy” value [2, 40] was 100.0%, the “Flea Counts/Dog/Day (Geometric Means)” value [2, 40] was 0.0 and the “% Efficacy” value [2, 41] was 100.0%. The “Flea Counts/Dog/Day (Geometric Means)” value [2, 41] was 0.0, the “% Efficacy” value [2, 42] was 98.1% and the “Flea Counts/Dog/Day (Geometric Means)” value [2, 42] was 1.5. The “% Efficacy” value [2, 43] was 80.3%, the “Flea Counts/Dog/Day (Geometric Means)” value [2, 43] was 15.4 and the “% Efficacy” value [2, 44] was 88.9%. For the same molecule, the “Flea Counts/Dog/Day (Geometric Means)” value [2, 44] was 9.7, the “% Efficacy” value ([2]; 10 mg imidacloprid/kg (1×) spot-on, Day 100) was 78.3% and the “% Efficacy” value ([2]; 10 mg imidacloprid/kg (1×) spot-on, Day 114) was 52.6%. The “% Efficacy” value [2, 45] was 100.0%, the “Flea Counts/Dog/Day (Geometric Means)” value [2, 45] was 0.0 and the “% Efficacy” value [2, 46] was 100.0%. For the same molecule, the “Flea Counts/Dog/Day (Geometric Means)” value [2, 46] was 0.0, the “% Efficacy” value [2, 47] was 100.0% and the “Flea Counts/Dog/Day (Geometric Means)” value [2, 47] was 0.0. For the same molecule, the “% Efficacy” value [2, 48] was 97.0%, the “Flea Counts/Dog/Day (Geometric Means)” value [2, 48] was 2.4 and the “% Efficacy” value [2, 49] was 96.4%. The “Flea Counts/Dog/Day (Geometric Means)” value [2, 49] was 3.1, the “% Efficacy” value ([2]; 30 mg imidacloprid/kg (3×) spot-on, Day 100) was 96.8% and the “% Efficacy” value ([2]; 30 mg imidacloprid/kg (3×) spot-on, Day 114) was 96.6%. For the same molecule, the “% Efficacy” value ([2]; 30 mg imidacloprid/kg (3×) spot-on, Day 128) was 94.5%.
